Assays:
[1] = system: Schaffer collateral-CA1 pathway of rat hippocampal slices; assay: LTP induction in Schaffer collateral-CA1 pathway of hippocampal slices (fEPSP slope); format: cell-based, Wistar rats; conditions: for fEPSP slope: 1.6 μM perfused 6 min (3 min before and 3 min after tetanus)
mice (motor learning) = assay: Rotorod test; format: in vivo; conditions: i.p. 1 mg/kg 20 min before first trial, 28 rpm
Procedure: Rotorod Test: This experiment was performed with mice (male, 20–25 gm). A rotorod apparatus was a plastic cylindrical rod (3 cm in diameter×13 cm in length). The rod was supported at the ends by two walls and was 25 cm from the base of the walls. The walls at the ends of the rod were high enough so that the mice cannot climb off the rod. Three trials were performed for each experiment. Compound 1 (1 mg/kg) or vehicle was i.p. injected 20 min before the first trial. For each trial of the rotorod test, the mice were placed on the rod and timed until they fell off the rod. They were timed up to a maximum of 3 min. The interval was 10 min. The rod was turned by an electric motor at 28 rpm.
Cerebellar nitric oxide has been also reported to be involved in LTD and motor learning. See, e.g., Li et al. (1995) J. Neurophysiol. 74: 489–494. Compound 1 improving motor learning was studied. Mice were chosen for this kind of experiment. […] The performance of control mice got improvement with increasing trial numbers, with a better improvement at the third trial. […] It is obvious that Compound 1 can also improve motor learning by mainly acting on the cerebellum.

How did the “LTP when compound added after tetanus” value ([1]; 1.6 μM added to ACSF 10 min after 2 trains of strong tetanus (100 Hz/1 sec)) turn out when `OCc1ccc(-c2nn(Cc3ccccc3)c3ccccc23)o1` [Compound 1, 1-benzyl-3-(5′-hydroxymethyl-2′-furyl)-indazole] was run?
The value was “not further potentiated”.

And the “fEPSP slope, simultaneous application of AP-5 and MCPG” value ([1]; AP-5 and MCGP applied simultaneously with Compound 1)?
Its value is 111.5±12.3%.

And the “LTP induced by Compound 1, concomitant perfusion with L-NAME” value ([1]; L-NAME 300 μM (nitric oxide synthase inhibitor))?
The value was “significantly attenuated”.

And the “LTP induced by Compound 1, with Zinc protoporphyrin” value ([1]; Zinc protoporphyrin 1 μM (heme oxygenase inhibitor))?
The value was “did not affect”.

What about the fEPSP ([1]; fEPSP slope 60 min after weak tetanus (50 Hz, 0.5 s), 1.6 μM perfused 3 min before and 3 min after tetanus) of the same compound?
The fEPSP was 172.9%.

What about the fEPSP slope ([1]; strong tetanus (two 100 Hz, 1 sec trains 20 sec apart), at 50 min after tetanus, % of base-line slope) of the same compound?
Its fEPSP slope is 404.7±34.9%.

What about the fEPSP slope ([1]; weak tetanus (20 Hz, 0.5 sec train), at 1 hr) of the same compound?
The fEPSP slope was 172.9±10.7%.

What about the “fEPSP slope, co-perfused with AP5” value ([1]; weak tetanus (50 Hz/0.5 s), with AP5 100 μM (NMDA receptor antagonist)) of the same compound?
Its value is 142.1±13.5%.

And the “fEPSP slope, co-perfused with KT5823” value ([1]; weak tetanus (50 Hz/0.5 s), with KT 5823 2 μM (protein kinase G inhibitor))?
The value was 112.9±5.4%.

And the “fEPSP slope, co-perfused with ODQ” value ([1]; weak tetanus (50 Hz/0.5 s), with ODQ 5 μM (soluble guanylyl cyclase inhibitor))?
Its value is 107.8±3.9%.

What about the “LTP induced by Compound 1, co-perfused with MCPG” value ([1]; with MCPG 100 μM) of the same compound?
The value was “reduced”.

And the “motor coordination on a turning rotorod” value (mice (motor learning))?
The value was “significantly improved motor coordination”.
